Entries after “also recorded” stand apart in the source; their conditions may differ.
What was measured:
[1] = molecular target: T1, TLR3 (Mus musculus, UniProt Q99MB1); assay: Cytokine production by sorted Flt3L-DC cDC1 activated with poly I:C LMW; format: cell-based; conditions: sorted cDC1, 10 μg/mL poly I:C LMW 6 h, GBZ 50 μM
T1 construct: endogenous in cells; host or cells: sorted cDC1 from Flt3L-differentiated mouse bone marrow cultures
T1 sequence (Q99MB1 26-905): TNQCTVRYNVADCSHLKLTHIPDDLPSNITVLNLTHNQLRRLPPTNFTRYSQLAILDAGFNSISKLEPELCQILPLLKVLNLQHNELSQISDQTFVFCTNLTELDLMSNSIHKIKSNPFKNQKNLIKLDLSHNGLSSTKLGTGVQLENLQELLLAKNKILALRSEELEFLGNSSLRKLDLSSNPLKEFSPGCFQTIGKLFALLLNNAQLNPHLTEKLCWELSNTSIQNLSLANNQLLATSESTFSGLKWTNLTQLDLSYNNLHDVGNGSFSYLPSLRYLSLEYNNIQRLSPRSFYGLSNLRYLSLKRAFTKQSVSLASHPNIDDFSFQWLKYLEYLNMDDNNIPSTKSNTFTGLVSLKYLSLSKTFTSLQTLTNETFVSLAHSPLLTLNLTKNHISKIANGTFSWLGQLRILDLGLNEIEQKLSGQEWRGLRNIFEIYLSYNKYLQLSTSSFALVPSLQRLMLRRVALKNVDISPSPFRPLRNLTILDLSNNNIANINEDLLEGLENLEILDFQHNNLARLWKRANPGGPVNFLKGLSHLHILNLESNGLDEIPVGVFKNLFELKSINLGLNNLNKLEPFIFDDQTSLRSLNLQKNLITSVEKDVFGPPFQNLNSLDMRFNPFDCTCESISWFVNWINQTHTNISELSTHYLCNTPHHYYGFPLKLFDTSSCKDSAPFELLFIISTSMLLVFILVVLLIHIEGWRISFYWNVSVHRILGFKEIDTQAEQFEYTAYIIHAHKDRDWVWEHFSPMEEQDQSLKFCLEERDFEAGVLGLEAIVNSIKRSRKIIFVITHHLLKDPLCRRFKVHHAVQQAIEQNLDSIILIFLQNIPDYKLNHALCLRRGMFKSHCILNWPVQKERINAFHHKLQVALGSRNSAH
Procedure: FIG. 1: Guanabenz inhibits TLR3 and TLR9 activation in mouse Flt3-L DCs and human blood pDCs. A) Sorted bone marrow derived Flt3L-DCs were activated for 6 h with 10 μg/mL poly I:C LMW (TLR3 in DC1) or 1 μM ODN 1585 (TLR9 in pDCs). GBZ was added at 50 μM and inhibited IFN-β and Interleukin-6 (IL-6) production in activated cells. B) hTLR4, hTLR3, hTLR9 and hTLR7 expressed in the reporter HEK-Blue™ cells are inhibited by GBZ. TLR-expressing HEK-Blue™ cells were respectively activated with 100 ng/mL LPS, 10 μg/mL poly I:C LMW, 2.5 μM ODN 2006 or 5 μg/mL imiquimod, respectively. GBZ was added at 50 μM. TLR activity was measured indirectly through SEAP activity as absorbance at 405 nm. […] Protein concentration of IFN-α and TNF-α secreted were measured at the indicated time points or at 16 h. […]
BM-derived DCs were differentiated in vitro from the bone marrow of 6-8 weeks old male mice, using either FLT3 ligand or GM-CSF. […] For sorted Flt3L-DCs, cells were gently harvested at day 7 with cold PBS 2% FCS, centrifuged 1200 rpm 5 min at 4° C., counted and stained with for 30 mins at 4° C. […]
Mouse IFN-β quantification in culture supernatant was performed using the Mouse Interferon Beta ELISA kit (PBL InterferonSource); mouse IL-6, TNFα, IL-10, human TNFα and human IFNα were quantified using ELISA kit (eBioscience) respectively, according to manufacturer instructions. […]

[2] = tested on: RIG-I like receptor (RLR) dsRNA sensing pathway; assay: IRF3 activation and IFN-β expression in MEFs lipofected with poly(I:C); format: cell-based, mouse; conditions: WT and Gadd34-deficient
Procedure: FIG. 2: Interferon β (IFNb) production in response to cytosolic dsRNA (Poly I:C) in WT and Gadd34-deficient embryonic fibroblasts (MEFs) treated with Guanabenz.
(A) IFNb expression in response to lipofected dsRNA (poly I:C) was measured by qPCR (mRNA) or (B) by ELISA (secreted protein) after treatment with Guanabenz (GBZ). (C) Activation of the transcription IRF3 by phosphorylation that drives IFN-β mRNA expression was monitored by western blot in WT and Gadd34-deficient animals (ΔC/ΔC, KO or −/−) in response to lipofected poly I:C in presence of GBZ. (D) eIF2α A/A mutants MEFs (unable to phosphorylate eIF2α on Serine 52, that is targeted by GADD34 and to inhibit protein synthesis) were also tested for IFN-β production and IRF3 activation.

Structure (SMILES): NC(N)=N/N=C/c1c(Cl)cccc1Cl [GBZ, 2-(2,6-dichlorobenzylidene)-hydrazinecarboximidamide]
- IFN-β production [1]: nearly abrogated; also recorded: inhibited
- IL-6 production [1]: nearly abrogated; also recorded: inhibited
- IFN-β expression (mRNA by qPCR, secreted protein by ELISA) [2]: inhibited
- activation of IRF3 (phosphorylation, western blot) [2]: inhibited
- IFN-β expression (mRNA by qPCR, secreted protein by ELISA) ([2]; listed as Guanabenz): inhibit
- activation of IRF3 (phosphorylation, western blot) ([2]; listed as Guanabenz): inhibit
